Source: patent US10582709B2, “Butyrolactones as herbicides” (FMC Corporation, priority 2015, dated 2020)

Columns and labels:
Assay type in all cases: in vivo
[1] = system: pigweed (Amaranthus retroflexus); assay: Test A postemergence, pigweed; details: visual rating after approx. 10 d, 0 to 100 scale, 0 no effect, 100 complete control
Description: (§1) Seeds of plant species selected from barnyardgrass (Echinochloa crus-galli), crabgrass (large crabgrass, Digitaria sanguinalis), kochia (Kochia scoparia), ragweed (common ragweed, Ambrosia elatior), morningglory (Ipomoea spp.), velvetleaf (Abutilon theophrasti), ryegrass, Italian (Italian ryegrass, Lolium multiflorum), foxtail, giant (giant foxtail, Setaria faberii), wheat (Triticum aestivum), corn (Zea mays), and pigweed (Amaranthus retroflexus), were planted into a blend of loam soil and sand and treated preemergence with a directed soil spray using test chemicals formulated in a non-phytotoxic solvent mixture which included a surfactant. At the same time, plants selected from these crop and weed species and also blackgrass (Alopecurus myosuroides), and galium (catchweed bedstraw, Galium aparine), were planted in pots containing the same blend of loam soil and sand and treated with postemergence applications of test chemicals formulated in the same manner. Plants ranged in height from 2 to 10 cm and were in the one- to two-leaf stage for the postemergence treatment. Treated plants and untreated controls were maintained in a greenhouse for approximately 10 d, after which time all treated plants were compared to untreated controls and visually evaluated for injury. Plant response ratings, summarized in Table A, are based on a 0 to 100 scale where 0 is no effect and 100 is complete control. A dash (-) response means no test result.

[2] = system: ducksalad (Heteranthera limosa); assay: Test B flooded paddy test, ducksalad; details: applied to paddy water at 2-leaf stage, 13 to 15 d, scale 0 no effect to 100 complete control
Procedure: (§2) Plant species in the flooded paddy test selected from rice (Oryza sativa), sedge, umbrella (small-flower umbrella sedge, Cyperus difformis), ducksalad (Heteranthera limosa), and barnyardgrass (Echinochloa crus-galli) were grown to the 2-leaf stage for testing. At time of treatment, test pots were flooded to 3 cm above the soil surface, treated by application of test compounds directly to the paddy water, and then maintained at that water depth for the duration of the test. Treated plants and controls were maintained in a greenhouse for 13 to 15 d, after which time all species were compared to controls and visually evaluated. Plant response ratings, summarized in Table B, are based on a scale of 0 to 100 where 0 is no effect and 100 is complete control. A dash (-) response means no test result.

[3] = system: wheat (Triticum aestivum); assay: Test A postemergence, wheat; details: visual rating after approx. 10 d, 0 to 100 scale, 0 no effect, 100 complete control
Description: as §1

[4] = system: foxtail, giant (giant foxtail, Setaria faberii); assay: Test A postemergence, giant foxtail; details: visual rating after approx. 10 d, 0 to 100 scale, 0 no effect, 100 complete control
Description: as §1

[5] = system: blackgrass (Alopecurus myosuroides); assay: Test A postemergence, blackgrass; details: visual rating after approx. 10 d, 0 to 100 scale, 0 no effect, 100 complete control
Description: as §1

[6] = system: ryegrass, Italian (Italian ryegrass, Lolium multiflorum); assay: Test A preemergence, Italian ryegrass; details: visual rating after approx. 10 d, 0 to 100 scale, 0 no effect, 100 complete control
Description: as §1

corn (Zea mays) = assay: Test A postemergence, corn; details: visual rating after approx. 10 d, 0 to 100 scale, 0 no effect, 100 complete control
Description: as §1

[7] = system: ryegrass, Italian (Italian ryegrass, Lolium multiflorum); assay: Test A postemergence, Italian ryegrass; details: visual rating after approx. 10 d, 0 to 100 scale, 0 no effect, 100 complete control
Description: as §1

[8] = system: pigweed (Amaranthus retroflexus); assay: Test A preemergence, pigweed; details: visual rating after approx. 10 d, 0 to 100 scale, 0 no effect, 100 complete control
Description: as §1

rice (Oryza sativa) = assay: Test B flooded paddy test, rice; details: applied to paddy water at 2-leaf stage, 13 to 15 d, scale 0 no effect to 100 complete control
Procedure: as §2

[9] = system: barnyardgrass (Echinochloa crus-galli); assay: Test B flooded paddy test, barnyardgrass; details: applied to paddy water at 2-leaf stage, 13 to 15 d, scale 0 no effect to 100 complete control
Procedure: as §2

[10] = system: ragweed (common ragweed, Ambrosia elatior); assay: Test A postemergence, ragweed; details: visual rating after approx. 10 d, 0 to 100 scale, 0 no effect, 100 complete control
Description: as §1

[11] = system: ragweed (common ragweed, Ambrosia elatior); assay: Test A preemergence, ragweed; details: visual rating after approx. 10 d, 0 to 100 scale, 0 no effect, 100 complete control
Description: as §1

[12] = system: barnyardgrass (Echinochloa crus-galli); assay: Test A preemergence, barnyardgrass; details: visual rating after approx. 10 d, 0 to 100 scale, 0 no effect, 100 complete control
Description: as §1

kochia (Kochia scoparia) [13] = assay: Test A preemergence, kochia; details: visual rating after approx. 10 d, 0 to 100 scale, 0 no effect, 100 complete control
Description: as §1

[14] = system: foxtail, giant (giant foxtail, Setaria faberii); assay: Test A preemergence, giant foxtail; details: visual rating after approx. 10 d, 0 to 100 scale, 0 no effect, 100 complete control
Description: as §1

[15] = system: sedge, umbrella (small-flower umbrella sedge, Cyperus difformis); assay: Test B flooded paddy test, umbrella sedge; details: applied to paddy water at 2-leaf stage, 13 to 15 d, scale 0 no effect to 100 complete control
Procedure: as §2

[16] = system: barnyardgrass (Echinochloa crus-galli); assay: Test A postemergence, barnyardgrass; details: visual rating after approx. 10 d, 0 to 100 scale, 0 no effect, 100 complete control
Description: as §1

kochia (Kochia scoparia) [17] = assay: Test A postemergence, kochia; details: visual rating after approx. 10 d, 0 to 100 scale, 0 no effect, 100 complete control
Description: as §1

[18] = system: galium (catchweed bedstraw, Galium aparine); assay: Test A postemergence, galium; details: visual rating after approx. 10 d, 0 to 100 scale, 0 no effect, 100 complete control
Description: as §1

| SMILES | Plant response rating, Pigweed ([1]; 125 g ai/ha) | Plant response rating, Pigweed ([1]; 500 g ai/ha) | Plant response rating, Flood, Ducksalad ([2]; 250 g ai/ha) | Plant response rating, Flood, Ducksalad ([2]; 1000 g ai/ha) | Plant response rating, Wheat ([3]; 125 g ai/ha) | Plant response rating, Wheat ([3]; 500 g ai/ha) | Plant response rating, Foxtail, Giant ([4]; 125 g ai/ha) | Plant response rating, Foxtail, Giant ([4]; 500 g ai/ha) | Plant response rating, Blackgrass ([5]; 125 g ai/ha) | Plant response rating, Blackgrass ([5]; 500 g ai/ha) | Plant response rating, Ryegrass, Italian ([6]; 125 g ai/ha) | Plant response rating, Ryegrass, Italian ([6]; 500 g ai/ha) | Plant response rating, Corn (corn (Zea mays); 125 g ai/ha) | Plant response rating, Corn (corn (Zea mays); 500 g ai/ha) | Plant response rating, Ryegrass, Italian ([7]; 125 g ai/ha) | Plant response rating, Ryegrass, Italian ([7]; 500 g ai/ha) | Plant response rating, Pigweed ([8]; 125 g ai/ha) | Plant response rating, Pigweed ([8]; 500 g ai/ha) | Plant response rating, Flood, Rice (rice (Oryza sativa); 250 g ai/ha) | Plant response rating, Flood, Rice (rice (Oryza sativa); 1000 g ai/ha) | further results |
| --- | --- | --- | --- | --- | --- | --- | --- | --- | --- | --- | --- | --- | --- | --- | --- | --- | --- | --- | --- | --- | --- |
| O=C(Nc1cccc(F)c1C(F)(F)F)C1C(=O)OCC1c1ccc(C(F)(F)F)cc1 (racemic) [Compound 10] | 0 | 0 | 20 | 25 | 0 | 0 | 30 | 70 | 0 | 0 | 0 | 0 | 0 | 0 | 0 | 0 | 0 | 0 | 0 | 0 | Plant response rating, Flood, Barnyardgrass ([9]; 250 g ai/ha): 0; Plant response rating, Flood, Barnyardgrass ([9]; 1000 g ai/ha): 0; Plant response rating, Ragweed ([10]; 125 g ai/ha): 0; Plant response rating, Ragweed ([10]; 500 g ai/ha): 0; Plant response rating, Ragweed ([11]; 125 g ai/ha): 0; Plant response rating, Ragweed ([11]; 500 g ai/ha): 0; Plant response rating, Barnyardgrass ([12]; 125 g ai/ha): 0; Plant response rating, Barnyardgrass ([12]; 500 g ai/ha): 0; Plant response rating, Kochia (kochia (Kochia scoparia) [13]; 125 g ai/ha): 0; Plant response rating, Kochia (kochia (Kochia scoparia) [13]; 500 g ai/ha): 0; Plant response rating, Foxtail, Giant ([14]; 125 g ai/ha): 40; Plant response rating, Foxtail, Giant ([14]; 500 g ai/ha): 50; Plant response rating, Flood, Sedge, Umbrella ([15]; 250 g ai/ha): 0; Plant response rating, Flood, Sedge, Umbrella ([15]; 1000 g ai/ha): 0; Plant response rating, Barnyardgrass ([16]; 125 g ai/ha): 0; Plant response rating, Barnyardgrass ([16]; 500 g ai/ha): 0; Plant response rating, Kochia (kochia (Kochia scoparia) [17]; 125 g ai/ha): 0; Plant response rating, Kochia (kochia (Kochia scoparia) [17]; 500 g ai/ha): 0; Plant response rating, Galium ([18]; 125 g ai/ha): 0; Plant response rating, Galium ([18]; 500 g ai/ha): 0 |
| O=C(Nc1ccccc1F)C1C(=O)OCC1c1ccc(C(F)(F)F)cc1 (racemic) [Compound 8] | 0 | 0 | 30 | 30 | 0 | 0 | 20 | 40 | 0 | 0 | 0 | 0 | 0 | 0 | 0 | 0 | 0 | 0 | 0 | 0 | Plant response rating, Flood, Barnyardgrass ([9]; 250 g ai/ha): 0; Plant response rating, Flood, Barnyardgrass ([9]; 1000 g ai/ha): 0; Plant response rating, Ragweed ([10]; 125 g ai/ha): 0; Plant response rating, Ragweed ([10]; 500 g ai/ha): 0; Plant response rating, Ragweed ([11]; 125 g ai/ha): 0; Plant response rating, Ragweed ([11]; 500 g ai/ha): 0; Plant response rating, Barnyardgrass ([12]; 125 g ai/ha): 0; Plant response rating, Barnyardgrass ([12]; 500 g ai/ha): 20; Plant response rating, Kochia (kochia (Kochia scoparia) [13]; 125 g ai/ha): 0; Plant response rating, Kochia (kochia (Kochia scoparia) [13]; 500 g ai/ha): 0; Plant response rating, Foxtail, Giant ([14]; 125 g ai/ha): 20; Plant response rating, Foxtail, Giant ([14]; 500 g ai/ha): 40; Plant response rating, Flood, Sedge, Umbrella ([15]; 250 g ai/ha): 0; Plant response rating, Flood, Sedge, Umbrella ([15]; 1000 g ai/ha): 0; Plant response rating, Barnyardgrass ([16]; 125 g ai/ha): 0; Plant response rating, Barnyardgrass ([16]; 500 g ai/ha): 20; Plant response rating, Kochia (kochia (Kochia scoparia) [17]; 125 g ai/ha): 0; Plant response rating, Kochia (kochia (Kochia scoparia) [17]; 500 g ai/ha): 0; Plant response rating, Galium ([18]; 125 g ai/ha): 0; Plant response rating, Galium ([18]; 500 g ai/ha): 0 |
